Experimental data from PubChem BioAssay (NCI).
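Each compound was tested at five concentrations against cells in 96-well plates for 48 hours. At the TGI there is no net growth.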

How the values were obtained:
Test in all cases: NCI tumour cell line growth inhibition, 48 h
U251 CNS = tested on: U251 CNS
TK-10 renal = tested on: TK-10 renal
MCF7 breast = tested on: MCF7 breast
PC-3 prostate = tested on: PC-3 prostate
ACHN renal = tested on: ACHN renal
NCI-H226 lung = tested on: NCI-H226 lung
M14 melanoma = tested on: M14 melanoma
T-47D breast = tested on: T-47D breast
NCI-H522 lung = tested on: NCI-H522 lung
RXF 393 renal = tested on: RXF 393 renal
786-0 renal = tested on: 786-0 renal
SNB-19 CNS = tested on: SNB-19 CNS
IGROV1 ovarian = tested on: IGROV1 ovarian
UACC-62 melanoma = tested on: UACC-62 melanoma
SNB-75 CNS = tested on: SNB-75 CNS
SK-OV-3 ovarian = tested on: SK-OV-3 ovarian
UACC-257 melanoma = tested on: UACC-257 melanoma
NCI/ADR-RES ovarian = tested on: NCI/ADR-RES ovarian
HT29 colon = tested on: HT29 colon
SK-MEL-28 melanoma = tested on: SK-MEL-28 melanoma
MDA-MB-231 breast = tested on: MDA-MB-231 breast
HL-60(TB) leukemia = tested on: HL-60(TB) leukemia
MALME-3M melanoma = tested on: MALME-3M melanoma
K-562 leukemia = tested on: K-562 leukemia
NCI-H23 lung = tested on: NCI-H23 lung
HCT-116 colon = tested on: HCT-116 colon
RPMI-8226 leukemia = tested on: RPMI-8226 leukemia
LOX IMVI melanoma = tested on: LOX IMVI melanoma
MDA-N = tested on: MDA-N
EKVX NSCLC = tested on: EKVX NSCLC
OVCAR-8 ovarian = tested on: OVCAR-8 ovarian
NCI-H460 lung = tested on: NCI-H460 lung
OVCAR-3 ovarian = tested on: OVCAR-3 ovarian
MOLT-4 leukemia = tested on: MOLT-4 leukemia
HOP-92 NSCLC = tested on: HOP-92 NSCLC
DU-145 prostate = tested on: DU-145 prostate
SN12C renal = tested on: SN12C renal
SK-MEL-2 melanoma = tested on: SK-MEL-2 melanoma
HOP-62 NSCLC = tested on: HOP-62 NSCLC
SW-620 colon = tested on: SW-620 colon
HCT-15 colon = tested on: HCT-15 colon
OVCAR-4 ovarian = tested on: OVCAR-4 ovarian
COLO 205 colon = tested on: COLO 205 colon
KM12 colon = tested on: KM12 colon
SR leukemia = tested on: SR leukemia
A498 renal = tested on: A498 renal
SF-295 CNS = tested on: SF-295 CNS
OVCAR-5 ovarian = tested on: OVCAR-5 ovarian
HS 578T breast = tested on: HS 578T breast
CCRF-CEM leukemia = tested on: CCRF-CEM leukemia
MDA-MB-435 = tested on: MDA-MB-435
CAKI-1 renal = tested on: CAKI-1 renal
A549 NSCLC = tested on: A549 NSCLC
SF-268 CNS = tested on: SF-268 CNS
SK-MEL-5 melanoma = tested on: SK-MEL-5 melanoma
BT-549 breast = tested on: BT-549 breast
SF-539 CNS = tested on: SF-539 CNS

Measured: TGI

O=C(O)CNCP(=O)(O)O
> 100 µM: all assays above
